Laboratory results published in article doi:10.1101/2022.01.05.475095v1 (biorxiv, 2022).

Key:
[1] = target: T1, SARS-CoV-2 PLpro (Severe acute respiratory syndrome coronavirus 2, UniProt P0DTD1); test: biochemical; details: read-out: PLpro % inhibition at 10 µM
[2] = target: T1, SARS-CoV-2 PLpro; test: fluorogenic Z-RLRGG-AMC cleavage assay; type: biochemical; details: read-out: % inhibition at 10 μM

Row | Compound | inhibition at 10 µM [1] | inhibition at 10 µM [2]
1 | CC1(C)OC2=C(C(=O)C(=O)c3ccccc32)C1n1cc(-c2ccccc2)nn1 (stereo not shown) [compound 159] | 100 ± 1% | –
2 | CC1(C)OC2=C(C(=O)C(=O)c3ccccc32)C1n1cc(CNC2=CC(=O)c3ccccc3C2=O)nn1 (stereo not shown) [compound 189] | 100% | –
3 | CC1(C)OC2=C(C(=O)C(=O)c3ccccc32)C1n1cc(CNC2=C(Br)C(=O)c3ccccc3C2=O)nn1 (stereo not shown) [compound 191] | 93 ± 0.7% | –
4 | Cc1ccc(S(=O)(=O)n2cc(CN(C3=CC(=O)c4ccccc4C3=O)c3ccc(Br)cc3)nn2)cc1 [compound 314, 314] | – | 55 ± 7%
5 | CC(=O)c1ccc(N(Cc2cn(S(=O)(=O)c3ccc(C)cc3)nn2)C2=CC(=O)c3ccccc3C2=O)cc1 [compound 318] | 9 ± 5% | –
6 | Cc1ccc(S(=O)(=O)n2cc(CNC3=CC(=O)c4ccccc4C3=O)nn2)cc1 [compound 319, 319] | – | 69 ± 3%
7 | Cc1ccc(S(=O)(=O)n2cc(CNC3=C(Cl)C(=O)c4ccccc4C3=O)nn2)cc1 [compound 320, 320] | 31 ± 6% | –
8 | Cc1ccc(S(=O)(=O)n2cc(CNC3=C(Br)C(=O)c4ccccc4C3=O)nn2)cc1 [compound 321, 321] | 17 ± 0.2% | –
9 | O=C1C(Sc2ccccc2)=C(Sc2ccccc2)C(=O)c2ccccc21 [compound 379] | 0% | –
10 | O=C1C(Sc2ccc(Br)cc2)=C(Sc2ccc(Br)cc2)C(=O)c2ccccc21 [compound 380, 380] | 12 ± 6% | –
11 | COc1ccc(SC2=C(Sc3ccc(OC)cc3)C(=O)c3ccccc3C2=O)cc1 [compound 382] | 0% | –
12 | CC(=O)NC1=CC(=O)c2cccc(O)c2C1=O [compound 414, 414] | 38 ± 2% | –
13 | CC(=O)NC1=CC(=O)c2c(cccc2[N+](=O)[O-])C1=O [compound 415, 415] | – | 63 ± 9%
14 | Cc1ccc(S(=O)(=O)c2cccc3c2C(=O)c2ccccc2C3=O)cc1 [compound 477, 477] | 0% | –
15 | CC1(C)OC2=C(CC1Br)C(=O)C(=NNc1ccccc1)c1ccccc12 (stereo not shown) [compound 666, 666] | 0% | –
16 | CC1(C)CC2=C(O1)c1ccccc1C(=NNc1ccccc1)C2=O [compound 673, 673] | 4 ± 4% | –
